Measurements taken from US8858988B2, “Compositions comprising extracts of Boswellia, tea tree, aloe and lavender oil and methods of treating wounds, burns and skin injuries therewith” (CuraPhyte Technologies Inc., priority 2009, dated 2014).
Marks after values point to notes of the source that are not given here.

System: mouse cutaneous injury model
Assay: Wound healing in mouse cutaneous injury model
Assay type: in vivo
Details: TOP
Procedure: Animal model: Groups of 8 ICR male mice weighing 22±2 g were used. Under ether anesthesia, the shoulder and back region of each animal was shaved. A sharp punch (ID 12 mm) was used to remove the skin including panniculus carnosus and adherent tissues. The wound area, traced onto clear plastic sheets on days 3, 5, 7, 9 and 11, were quantitated by use of an Image Analyzer (Life Science Resources VISTA, Version 30). Test compound and vehicle (20 μl, 1.5% carboxymethylcellulose in PBS) were applied topically immediately following injury and in single, two or three applications daily thereafter for a total of 10 consecutive days. The wound half-closure time (CT50) was determined and unpaired Student's t test was applied for comparison between treated and vehicle group at each measurement time point. Differences are considered statistical significance at P<0.05. CGS-21680 ((2-p-carboxyethyl)phenylamino-5′-N-carboxamidoadenosine) was used as a positive comparator. Test substance C-T-1001 (Ointment A: herbal active ingredients tea tree oil, boswellia resin, aloe vera gel and lavender oil) was evaluated for possible wound healing activity. The test substance was applied topically to the wound area once, twice, or three times daily for 10 consecutive days. Percent closure of the wound (%) was determined on days 3, 5, 7, 9 and 11 in order to generate the half closure time (CT50). One-way ANOVA followed by Dunnett's test was used to determine significant difference between the treated groups and vehicle control.

## CCNC(=O)[C@H]1O[C@@H](n2cnc3c(N)nc(NCCc4ccc(CCC(=O)O)cc4)nc32)[C@H](O)[C@@H]1O [CGS-21680]
10 μg/mouse × 10, Day 3, mean (X)
  The Closure of Wound (%) Day 3: 42.4* %
10 μg/mouse × 10, Day 5, mean (X)
  The Closure of Wound (%) Day 5: 56.3* %
10 μg/mouse × 10, Day 7, mean (X)
  The Closure of Wound (%) Day 7: 66.8* %
10 μg/mouse × 10, Day 9, mean (X)
  The Closure of Wound (%) Day 9: 74.3* %
10 μg/mouse × 10, Day 11, mean (X)
  The Closure of Wound (%) Day 11: 81.7* %
10 μg/mouse × 10, mean (X)
  CT50 (Days), wound half-closure time: 5.5* Days
